Patent US10556905B2, “Processes for preparing a diazabicyclooctane compound” (priority 2012, dated 2020)
Read-outs that look alike come from different tables or passages of the source.

Experiments:
AmpC = biological target: T1, AmpC (Pseudomonas aeruginosa, UniProt P24735); test: biochemical
T1 construct: AmpC, TEM-1, KPC-2 or OXA-2 domain excluding signal peptide was amplified with PCR; made in house; host or cells: Escherichia coli BL21 (DE3), pET-28b(+)

KPC-2 = biological target: T2, KPC-2 (Klebsiella pneumoniae, UniProt Q9F663); test: β-Lactamase inhibitory activity (nitrocefin hydrolysis), KPC-2; assay type: biochemical; conditions: KPC-2 0.5 nM, 100 μM nitrocefin, pre-incubation 30° C. 10 minutes
T2 construct: AmpC, TEM-1, KPC-2 or OXA-2 domain excluding signal peptide was amplified with PCR; made in house; host or cells: Escherichia coli BL21 (DE3), pET-28b(+)
T2 sequence (Q9F663 25-293, looked up): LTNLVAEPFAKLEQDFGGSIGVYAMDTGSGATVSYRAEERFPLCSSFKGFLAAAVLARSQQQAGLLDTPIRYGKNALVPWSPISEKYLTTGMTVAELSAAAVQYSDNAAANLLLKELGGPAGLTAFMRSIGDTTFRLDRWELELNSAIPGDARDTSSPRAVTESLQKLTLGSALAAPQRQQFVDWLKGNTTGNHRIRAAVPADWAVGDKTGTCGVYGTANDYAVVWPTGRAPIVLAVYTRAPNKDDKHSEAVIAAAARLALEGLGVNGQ

OXA-2 = biological target: T3, OXA-2 (Escherichia coli, UniProt P0A1V9); test: biochemical; set-up: species or system P. aeruginosa
T3 construct: AmpC, TEM-1, KPC-2 or OXA-2 domain excluding signal peptide was amplified with PCR; made in house; host or cells: Escherichia coli BL21 (DE3), pET-28b(+)
T3 sequence (P0A1V9 22-275): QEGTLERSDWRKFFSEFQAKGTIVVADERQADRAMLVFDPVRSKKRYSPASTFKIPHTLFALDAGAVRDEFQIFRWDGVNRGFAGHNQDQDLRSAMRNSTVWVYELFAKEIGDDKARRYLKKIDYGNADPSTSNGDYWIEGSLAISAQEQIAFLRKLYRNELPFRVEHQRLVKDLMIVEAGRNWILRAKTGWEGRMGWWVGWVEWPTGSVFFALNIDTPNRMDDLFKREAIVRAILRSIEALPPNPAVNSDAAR

TEM-1 = biological target: T4, TEM-1 (Escherichia coli, UniProt P62593); test: β-Lactamase inhibitory activity (nitrocefin hydrolysis), TEM-1; assay type: biochemical; conditions: TEM-1 0.1 nM, 100 μM nitrocefin, pre-incubation 30° C. 10 minutes
T4 construct: AmpC, TEM-1, KPC-2 or OXA-2 domain excluding signal peptide was amplified with PCR; made in house; host or cells: Escherichia coli BL21 (DE3), pET-28b(+)
T4 sequence (P62593 24-286 limits assumed): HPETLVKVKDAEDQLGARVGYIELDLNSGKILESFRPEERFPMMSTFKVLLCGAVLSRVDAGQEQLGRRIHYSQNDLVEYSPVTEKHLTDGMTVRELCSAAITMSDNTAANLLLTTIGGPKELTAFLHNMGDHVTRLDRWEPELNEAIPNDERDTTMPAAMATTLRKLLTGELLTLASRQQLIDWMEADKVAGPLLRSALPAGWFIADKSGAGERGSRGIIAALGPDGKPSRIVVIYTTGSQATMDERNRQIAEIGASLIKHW
Experimental: Using Pseudomonas aeruginosa ATCCBAA-47 genome, plasmid pBR322, Klebsiella pneumoniae ATCCBAA-1705, and P. aeruginosa MSC17696 as a template, each DNA for encoding β-lactamase, AmpC, TEM-1, KPC-2 or OXA-2 domain excluding signal peptide was amplified with PCR. Each of the PCR product was incorporated into pET-28b(+)vector (Merck), introduced into Escherichia coli BL21 (DE3) (Merck), and, under induction of 1 mM isopropyl-β-D-(−)-thiogalactopyranoside (Nacalai Tesque), cultured overnight at 20° C. to express AmpC, TEM-1, KPC-2, and OXA-2. After the bacterial cell was collected, AmpC was purified from the cell extract obtained by ultrasonic treatment, using CM Sepharose Fast Flow (GE Healthcare) and HiTrap Heparin HP (GE Healthcare) at 4° C. TEM-1 was purified with HiTrap SPHP (GE Healthcare), HiTrap Q (GE Healthcare) and Mono Q (GE Healthcare), and KPC-2 was purified with HiTrap SPHP. OXA-2 was purified with HiTrap SPHP and HiTrap Heparin HP.
For the measurement of β-lactamase inhibitory activity, 100 μM (final concentration) nitrocefin (Oxoid) was used as a substrate, and 2.5% DMSO, 10 μg/mL bovine serum derived albumin (Sigma-Aldrich) and 50 mM phosphate buffer at pH 7.0 were used as a reaction solution. […] Nitrocefin was added to each well to be mixed therein, followed by incubation at 30° C. for 20 minutes, and Multiscan Ascent (Thermo Fisher Scientific) was used to measure 492 nm wavelength, thereby measuring nitrocefin hydrolytic activity of β-Lactamase, to determine enzyme inhibitory activity. […] As the inhibitory activity strength, less than 0.1 μM, less than 1 μM, less than 3 μM, less than 10 μM, and 10 μM or more were shown with A, B, C, D, and E respectively.

[1] = OXA-2 2 nM, 100 μM nitrocefin, pre-incubation 30° C. 10 minutes, read-out: β-Lactamase inhibitory activity OXA-2 (IC50)

T1 sequence (P24735 27-397): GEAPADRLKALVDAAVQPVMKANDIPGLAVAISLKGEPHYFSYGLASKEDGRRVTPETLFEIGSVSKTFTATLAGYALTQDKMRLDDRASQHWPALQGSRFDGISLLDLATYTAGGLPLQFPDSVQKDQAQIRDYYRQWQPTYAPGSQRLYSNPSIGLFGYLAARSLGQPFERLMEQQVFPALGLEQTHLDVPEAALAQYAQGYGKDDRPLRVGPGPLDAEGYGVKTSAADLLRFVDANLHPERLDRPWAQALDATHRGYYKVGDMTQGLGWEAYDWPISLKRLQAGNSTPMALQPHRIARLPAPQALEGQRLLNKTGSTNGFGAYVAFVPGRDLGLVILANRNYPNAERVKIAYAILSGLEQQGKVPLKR

SMILES | IC50 (AmpC) [nM] | IC50 (KPC-2) [nM] | IC50 (OXA-2) [nM] | IC50 (TEM-1) [nM] | IC50 (OXA-2; [1]) [nM]
COCC(=O)NNC(=O)[C@@H]1CC[C@@H]2CN1C(=O)N2OS(=O)(=O)O [Example 29, Sodium (2S,5R)—N′-(methoxyacetyl)-7-oxo-6-(sulfooxy)-1,6-diazabicyclo[3.2.1]octane-2-carbohydrazide] | 100 to 1000 | 100 to 1000 | 3000 to 10000 | < 100 | 
Nc1ccc(C(=O)NNC(=O)[C@@H]2CC[C@@H]3CN2C(=O)N3OS(=O)(=O)O)cc1 [Example 31, (2S,5R)—N′-(4-Aminobenzoyl)-7-oxo-6-(sulfooxy)-1,6-diazabicyclo[3.2.1]octane-2-carbohydrazide] | 100 to 1000 | 100 to 1000 |  | < 100 | 3000 to 10000
O=C(NNC(=O)[C@@H]1CC[C@@H]2CN1C(=O)N2OS(=O)(=O)O)C1CCOCC1 [Example 34, Sodium (2S,5R)-7-oxo-6-(sulfooxy)-N′-(tetrahydro-2H-pyran-4-ylcarbonyl)-1,6-diazabicyclo[3.2.1]octane-2-carbohydrazide] | < 100 | 100 to 1000 | 3000 to 10000 | < 100 | 
O=C(NNC(=O)[C@@H]1CC[C@@H]2CN1C(=O)N2OS(=O)(=O)O)C1CCNCC1 [Example 35, (2S,5R)-7-Oxo-N′-(piperidine-4-ylcarbonyl)-6-(sulfooxy)-1,6-diazabicyclo[3.2.1]octane-2-carbohydrazide] | 100 to 1000 | 3000 to 10000 |  | < 100 | 1000 to 3000
O=C(NNC(=O)[C@@H]1CC[C@@H]2CN1C(=O)N2OS(=O)(=O)O)[C@@H]1CCCCN1 [Example 36, (2S,5R)-7-Oxo-N′-[(2S)-piperidine-2-ylcarbonyl]-6-(sulfooxy)-1,6-diazabicyclo[3.2.1]octane-2-carbohydrazide] | 100 to 1000 | 1000 to 3000 |  | < 100 | 3000 to 10000
O=C(NNC(=O)[C@@H]1CC[C@@H]2CN1C(=O)N2OS(=O)(=O)O)[C@H]1CCCCN1 [Example 37, (2S,5R)-7-Oxo-N′-[(2R)-piperidine-2-ylcarbonyl]-6-(sulfooxy)-1,6-diazabicyclo[3.2.1]octane-2-carbohydrazide] | 1000 to 3000 | 1000 to 3000 |  | < 100 | 1000 to 3000
O=C(NNC(=O)[C@@H]1CC[C@@H]2CN1C(=O)N2OS(=O)(=O)O)[C@@H]1CCCN1 [Example 38, (2S,5R)-7-Oxo-N′-[(2S)-pyrrolidin-2-ylcarbonyl]-6-(sulfooxy)-1,6-diazabicyclo[3.2.1]octane-2-carbohydrazide] | 100 to 1000 | 100 to 1000 |  | < 100 | 1000 to 3000
O=C(NNC(=O)[C@@H]1CC[C@@H]2CN1C(=O)N2OS(=O)(=O)O)[C@H]1CCCN1 [Example 39, (2S,5R)-7-Oxo-N′-[(2R)-pyrrolidin-2-ylcarbonyl]-6-(sulfooxy)-1,6-diazabicyclo[3.2.1]octane-2-carbohydrazide] | < 100 | 1000 to 3000 |  | < 100 | 1000 to 3000
O=C(NNC(=O)[C@@H]1CC[C@@H]2CN1C(=O)N2OS(=O)(=O)O)[C@@H]1C[C@H](CC2CC2)CCN1 [Example 40, (2S,5R)—N′-{[(2S,4R)-4-Cyclopropylmethylpiperidine-2-yl]carbonyl}-7-oxo-6-(sulfooxy)-1,6-diazabicyclo[3.2.1]octane-2-carbohydrazide] | 100 to 1000 | 3000 to 10000 |  | < 100 | 1000 to 3000
O=C1CC[C@@H](C(=O)NNC(=O)[C@@H]2CC[C@@H]3CN2C(=O)N3OS(=O)(=O)O)N1 [Example 41, Sodium (2S,5R)-7-oxo-N′-{[(2S)-5-oxopyrrolidin-2-yl]carbonyl}-6-(sulfooxy)-1,6-diazabicyclo[3.2.1]octane-2-carbohydrazide] | 100 to 1000 | 1000 to 3000 | 3000 to 10000 | 100 to 1000 | 
